These results are taken from US10774082B2, “Quinazoline compound” (Astellas Pharma Inc., priority 2017, dated 2020).

Each structure is given as a SMILES string. Like-named read-outs stand apart in the source and are kept apart here.

Assay [1] deals with NCI-H1373 cells. The experiment in a line: Anchorage-independent cell proliferation inhibitory action, NCI-H1373 spheroid three-dimensional culture. It counts as cell-based, Human. The note with it: Homo sapiens, NCI-H1373, 144 h, read-out: IC50 (anchorage-independent cell proliferation inhibition). As for the experimental part: Evaluation of Anchorage-Independent Cell Proliferation Inhibitory Action with Respect to Human KRAS G12C Mutation Positive Non-Small Cell Lung Cancer Strain NCI-H1373
An anchorage-independent cell proliferation inhibitory action by the test compound was evaluated by a spheroid three-dimensional culture.
NCI-H1373 cells were seeded in cell low adsorption U bottom 384 well plates (Prime Surface: Sumitomo Bakelite Co., Ltd.) at 36 μL/well each so as to be 5×10^2 cell per well. The cell culture was performed under the same conditions as Test example 2.
The next day, the test compounds (six points in a range of final concentration 1,000 nM to 0.3 nM) and DMSO which is a solvent of the test compound as a negative control were diluted 100-fold with fresh medium, 4 μL each was added to each well. After culturing at 37° C. in the presence of 5% CO2 for six days, 20 μL of CellTiter Glo or to CellTiter Glo 2.0 (Promega Corporation) was added to each well. After stirring for one hour at room temperature using a plate mixer (FINEPCR), an emission signal was measured with ARVO X3 (PerkinElmer Co., Ltd.).
When a signal value in a DMSO treatment was set as 0% inhibition, and a signal value in cell-free medium only was set as 100% inhibition, a value of 50% inhibition (IC50) was calculated through Sigmoid-Emax model nonlinear regression analysis.

In assay [2] the target is T1, KRAS G12C/SOS/c-Raf complex (Homo sapiens, UniProt P01116, G12C).
T1 construct: Biotinylated AviTag-KRAS G12C (amino acid region 1-185, GDP)
T1 sequence (P01116 1-185 isoform P01116-2 G12C, one chain of several): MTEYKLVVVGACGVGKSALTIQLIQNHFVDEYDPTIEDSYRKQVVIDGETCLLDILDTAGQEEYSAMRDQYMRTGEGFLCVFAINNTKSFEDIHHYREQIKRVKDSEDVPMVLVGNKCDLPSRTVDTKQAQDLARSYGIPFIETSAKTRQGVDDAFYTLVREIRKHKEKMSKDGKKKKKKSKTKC
Nature of the assay: KRAS G12C/SOS/c-Raf complex formation inhibitory action (TR-FRET). The note with it: one hour at room temperature, read-out: IC50 (KRAS G12C/SOS/c-Raf complex formation inhibition). The assay is classed as biochemical. As for the experimental part: Evaluation of KRAS G12C/SOS/c-Raf Complex Formation Inhibitory Action
Human Recombinant KRAS G12C, SOS, and c-Raf protein were used, and with respect to the complex formation of these proteins, an inhibitory action of the test compound was examined through a time-resolved fluorescence resonance energy transfer (TR-FRET) method.
Biotinylated AviTag-KRAS G12C (amino acid region 1-185, GDP) (2.5 μL; 400 nM) dissolved in assay buffer (50 mM HEPES, 150 mM NaCl, 5 mM MgCl2, 0.05% Tween 20, pH 7.4) and test compound were added in a volume of 2.5 μL from 4,000 nM to 4 nM were added to 384 well plate (Corning Inc). Son of Sevenless (SOS) (amino acid region 564-1049, 2.5 μL; 1.3 μM) and c-Raf (amino acid region 51-131) GST containing GTP (Sigma-Aldrich Co. LLC) (2.5 μL; 130 nM and 4 μM of each) were added to the above mixture, and the resultant was left to stand for one hour at room temperature. Thereafter, a mixed solution (10 μL) of LANCE Ulight-anti-GST (120 nM, PerkinElmer. Co., Ltd) and LANCE Eu-W1024 labeled Streptoavidin (100 ng/mL, PerkinElmer. Co., Ltd) was added, and a fluorescence intensity on the condition of wavelength of 620 nm and 665 nm was measured by using EnVision 2103 Multilabel Reader (PerkinElmer Co., Ltd.) under the condition of excitation wavelength of 337 nm. […] In Tables, Ex represents Example numbers described later. In addition, in Tables, Compound C represents a test compound of Example I-59 disclosed in Pamphlet of International Publication No. WO 2016/164675, and the structures of Reference Example 1 and Reference Example 2 are indicated in Table 168 described below (the same shall apply hereinafter).

For assay [3], the system named is ERK phosphorylation (Thr 202/Tyr 204) in NCI-H1373 cells. The experiment in a line: ERK phosphorylation inhibitory action in NCI-H1373 (Cell ELISA). It counts as cell-based, Human. Particulars: Homo sapiens, NCI-H1373, 2 h, read-out: IC50 (ERK phosphorylation inhibition). As for the experimental part:
Evaluation of ERK Phosphorylation Inhibitory Action with Respect to Human KRAS G12C Mutation Positive Non-Small Cell Lung Cancer Strain NCI-H1373
The ERK phosphorylation inhibitory action by the test compound was evaluated by measuring phosphorylation of 202th threonine (Thr 202) and 204th tyrosine (Tyr 204) of ERK on the downstream of the KRAS signal by Cell ELISA.
NCI-H1373 cells (ATCC, CRL-5866) were seeded in 384 well plates (Greiner bio-one) at 36 μL/well each so as to be 2×10^4 cell per well. Cell culture was performed under the conditions of temperature of 37° C. in the presence of 5% CO2 by using RPMI 1640 medium (Sigma-Aldrich Co. LLC) containing 10% fetal bovine serum (GE Life Sciences).
The next day, the test compounds (six points in a range of final concentration 1,000 nM to 0.3 nM), final concentration 1 μM of Trametinib (GlaxoSmithKline Inc.; MEK inhibitor) as a positive control, and DMSO which is a solvent of the test compound as a negative control were diluted 100-fold with fresh medium, 4 μL each was added to each well, and then cultured for 2 hours. Immediately after culturing, 30 μL of 30% glyoxal solution (Wako: 40% glyoxal diluted with Phosphate Buffered Saline (PBS; Wako)) was added to each well, and the cells were left to stand at room temperature for one hour to be fixed. Thereafter, the supernatant was removed by centrifuging the plate (110×g for 7 seconds, unless otherwise stated below under the same conditions), and 20 μL of PBS containing 0.1% Triton X-100 (Amersham Biosciences Corp.) was added to each well. After being left to stand at room temperature for 10 minutes, the supernatant was removed by centrifugation, and the same operation was repeated. Next, 20 μL of PBS containing 0.5% SDS (Invitrogen) was added to each well, and the mixture was left to stand at room temperature for 30 minutes, and then centrifuged to remove the supernatant. Subsequently, 20 μL of a blocking solution (ODYSSEY Blocking Buffer; LI-COR Biosciences) was added to each well, and left to stand at room temperature for one hour. The supernatant was removed by centrifugation, and 10 μL of a blocking solution prepared by diluting ERK (Thr 202/Tyr 204) of a phosphorylation antibody (Cell Signaling Technology, Inc.) as a primary antibody to be ½, 500 amount with respect to a stock solution was added to each well and was left to stand at 4° C. for overnight.
The next day, a reaction liquid is removed by centrifuging the plate, 20 μL of 0.05% Tween-20-containing PBS (Thermo Scientific; 20×PBS Tween-20 diluted 20-fold with ion exchanged water) was added to each well, and each well was washed by removing the supernatant by centrifugation. Washing was performed three times in total. After washing, 10 μL of a blocking solution prepared by diluting IRDye 800CW Goat anti-Rabbit IgG (LI-COR Biosciences) as a secondary antibody to be 1/1,000 amount with respect to a stock solution was added to each well and was left to stand at room temperature for one hour. The reaction liquid was removed by centrifuging the plate, and each well was washed three times with 0.05% Tween-20-containing PBS in the same manner as after primary antibody reaction. The centrifugation after the third wash was 171×g for 17 seconds. After removal of the cleaning solution, the plate was left to air dry at room temperature for three hours or more and the fluorescent signal at 800 nm was measured by Aerius (LI-COR Biosciences).
When a signal value at the time of adding DMSO was set as 0% inhibition, and a signal value at the time of adding 1 μM of Trametinib was set as 100% inhibition, a value of 50% inhibition (IC50) was calculated through Sigmoid-Emax model nonlinear regression analysis.
For orientation: ELISA stands for enzyme-linked immunosorbent assay.

[4] abbreviates: NCI-H1373 spheroid, six days, CellTiter Glo.
[5] abbreviates: NCI-H1373 cells, cultured for 2 hours, 100% = 1 μM Trametinib.

On to `C=CC(=O)N1CC2(CCN(c3nc(OC4CCN(C)CC4)nc4c(OCC(F)F)c(-c5c(C)ccc6[nH]ncc56)c(C=C)cc34)CC2)C1` [Ex 1], for which the IC50 in assay [1] (setting [4]) came out at 0.012 µM; in assay [2] it was 0.034 µM; in assay [3] (setting [5]), 0.0064 µM.
Take `C=CC(=O)N1CC2(CCN(c3nc(OC4CCN(CCOC)CC4)nc4c(OCC(F)(F)F)c(-c5c(C)ccc6[nH]ncc56)c(C=C)cc34)CC2)C1` [Ex 36]: the IC50 in assay [2] came out at 0.021 µM.
With `C=CC(=O)N1CC2(CCN(c3nc(OC4CCN(CCCOC)CC4)nc4c(OCC(F)(F)F)c(-c5c(C)ccc6[nH]ncc56)c(C5CC5)cc34)CC2)C1` [Ex 38], in assay [2], the IC50 came out at 0.015 µM.
As for `C=CC(=O)N1CC2(CCN(c3nc(OC4CCN(CCOCC5CC5)CC4)nc4c(OCC(F)(F)F)c(-c5c(C)ccc6[nH]ncc56)c(C=C)cc34)CC2)C1` [Ex 41], the IC50 in assay [1] (setting [4]) turned out to be 0.014 µM; in assay [2] it was 0.042 µM; in assay [3] (setting [5]) it was 0.0062 µM.
The corresponding values for `C=CC(=O)N1CC2(CCN(c3nc(SC4CCN(C)CC4)nc4c(OCC(F)(F)F)c(-c5c(C)ccc6[nH]ncc56)c(C=C)cc34)CC2)C1` [Ex 51] are 0.024 µM, 0.059 µM and 0.0089 µM.
The corresponding values for `COCCN1CCC(Oc2nc(N3CCC4(CC3)CN(C(=O)/C=C/C(F)(F)F)C4)c3cc(C4CC4)c(-c4c(C)ccc5[nH]ncc45)c(OCC(F)F)c3n2)CC1` [Ex 82] are 0.062 µM, 0.043 µM and 0.016 µM.
The matching figures for `C=CC(=O)N1CC2(CCN(c3nc(OC4CCN(CC)CC4)nc4c(OCC)c(-c5c(C)c(F)cc6[nH]ncc56)c(C=C)cc34)CC2)C1` [Example 8]: 0.0035 µM, 0.032 µM and 0.0026 µM.
In the case of `C=CC(=O)N1CC2(CCN(c3nc(OC4CCN(CC)CC4)nc4c(OCC(F)(F)F)c(-c5c(C)ccc6[nH]ncc56)c(C=C)cc34)CC2)C1` [Example 9], the IC50 in assay [1] (setting [4]) was 0.0055 µM; in assay [2], 0.055 µM; in assay [3] (setting [5]) it was 0.0038 µM.
The corresponding values for `C=CC(=O)N1CC2(CCN(c3nc(OC4CCN(CC)CC4)nc4c(OCC(F)F)c(-c5c(C)ccc6[nH]ncc56)c(C=C)cc34)CC2)C1` [Example 10] are 0.01 µM, 0.034 µM and 0.0057 µM.
The corresponding values for `C=CC(=O)N1CC2(CCN(c3nc(OC4CCN(CC)CC4)nc4c(OC5CC(F)(F)C5)c(-c5c(C)ccc6[nH]ncc56)c(C=C)cc34)CC2)C1` [Example 11] are 0.012 µM, 0.038 µM and 0.01 µM.
As to `C=CC(=O)N1CC2(CCN(c3nc(OC4CCN(C(C)C)CC4)nc4c(OCC)c(-c5c(C)ccc6[nH]ncc56)c(C=C)cc34)CC2)C1` [Example 12], the IC50 amounted to 0.011 µM in assay [1], 0.023 µM in assay [2] and 0.0067 µM in assay [3].
The corresponding values for `C=CC(=O)N1CC2(CCN(c3nc(OC4CCN(CCOC)CC4)nc4c(OCC)c(-c5c(C)ccc6[nH]ncc56)c(C=C)cc34)CC2)C1` [Example 13] are 0.013 µM, 0.037 µM and 0.011 µM.
The corresponding values for `C=CC(=O)N1CC2(CCN(c3nc(OC[C@@H]4CCCN4C)nc4c(OCC(F)F)c(-c5c(C)ccc6[nH]ncc56)c(C=C)cc34)CC2)C1` [Example 14] are 0.0088 µM, 0.05 µM and 0.0061 µM.
The matching figures for `C=CC(=O)N1CC2(CCN(c3nc(OC4CCN(C)CC4)nc4c(OC5CCC5)c(-c5c(C)ccc6[nH]ncc56)c(C=C)cc34)CC2)C1` [Example 17]: 0.012 µM, 0.034 µM and 0.0049 µM.
Take `C=CC(=O)N1CC2(CCN(c3nc(OC4CCN(CC)CC4)nc4c(OCC)c(-c5c(C)ccc6[nH]ncc56)c(C5CC5)cc34)CC2)C1` [Example 18]: the IC50 in assay [1] (setting [4]) was determined as 0.0073 µM; in assay [2], 0.046 µM; in assay [3] (setting [5]), 0.0059 µM.
For `C=CC(=O)N1CC2(CCN(c3nc(OC4CCN(CC)CC4)nc4c(OC5CCC5)c(-c5c(C)ccc6[nH]ncc56)c(C5CC5)cc34)CC2)C1` [Example 19], the IC50 is 0.015 µM in assay [1] (setting [4]), 0.048 µM in assay [2] and 0.0045 µM in assay [3] (setting [5]).
The corresponding values for `C=CC(=O)N1CC2(CCN(c3nc(OC4CCN(CC)CC4)nc4c(OC5CCC5)c(-c5c(C)ccc6[nH]ncc56)c(C=C)cc34)CC2)C1` [Example 20] are 0.011 µM, 0.032 µM and 0.0065 µM.
The matching figures for `C=CC(=O)N1CC2(CCN(c3nc(OC4CCN(CC)CC4)nc4c(OCC)c(-c5c(Cl)ccc6[nH]ncc56)c(C=C)cc34)CC2)C1` [Example 21]: 0.027 µM, 0.065 µM and 0.014 µM.
